Assay results from patent US20080124813A1, “Bead-based radioimmunoassay” (Phoenix Pharmaceuticals, Inc., priority 2006, published 2008).
No end group written: not given here.

Key:
anti-ghrelin antibody [1] = assay: 150 μl small volume competitive radiolabeled ghrelin binding by bead-linked antibody (bead-based RIA); conditions: competition with I^125-ghrelin, total volume about 150 μl; stated as comparable to conventional RIA of Example 1
Experimental: A particular embodiment of the immunoassay method for competitive dissociable capture of radiolabeled ghrelin peptide by solid phase linked antibody to determine ghrelin peptide concentration in a 150 μl small volume immunoassay sample can be performed as follows:
1. Combine 25 μl of antibody conjugated beads in stock solution prepared in accordance with Example 2B to 50 μl human plasma or 50 μl standard solution.
2. Mix the resulting combination and incubate 6 hrs at 4° C.
3. Add 25 μl of I^125-ghrelin prepared in accordance with Example 1.3 and 50 μl RIA buffer.
4. Incubate 16-18 hrs. at 4° C.
5. Add 1.5 ml RIA buffer to incubated mixture and centrifuge for 5 minutes at 17,000× g. Aspirate off the supernatant (except total counts tubes). 6. Wash once with 1 ml RIA buffer. Aspirate off the supernatant (except total counts tubes).
7. Measure and record counts per minute for each assay tube.
The plasma concentration was interpolated from standard curves and indicate about 18.7 pg in 150 ul solution. The amounts of isotope labeled-ligands applied (as indicated in total counts tubes) was twice that of the conventional RIA described in Example 1. […] The total assay time was about 24 hours for this embodiment of the inventive immunoassay method. […]

anti-ghrelin antibody [2] = assay: 60 μl small volume competitive radiolabeled ghrelin binding by bead-linked antibody (bead-based RIA); conditions: competition with I^125-ghrelin, total volume about 60 μl; stated as comparable to conventional RIA of Example 1
Experimental: A particular embodiment of the immunoassay method for competitive dissociable capture of radiolabeled ghrelin peptide by solid phase linked antibody to determine ghrelin peptide concentration in a 60 μl small volume immunoassay sample can be performed as follows:
1. Combine 25 μl of antibody immobilized beads in stock solution prepared in accordance with Example 2B to about 25 μl human plasma or 10 μl-25 μl standard solution.
2. Mix resulting combination and incubate 6 hours at room temperature.
3. Add 10 μl 125I-peptide. Mix and incubate overnight (16-18 hrs.) at 4° C. 4. Add RIA buffer. Mix and centrifuge for 5 minutes at 1,700 g. Aspirate off the supernatant (except total count tubes). 5. Wash once with 1 ml RIA buffer. Aspirate off the supernatant (except total count tubes).
6. Measure and record counts per minute for each assay tube.
The plasma concentration was interpolated from standard curves and indicate about 18.7 pg in 150 μl solution. The amounts of isotope labeled-ligands applied (as indicated in total counts tubes) was twice that of the conventional RIA as described in Example 1. […]

insulysin (IDE) = insulysin (IDE) (Homo sapiens, UniProt P14735); assay: Peptide degradation by insulysin (IDE), read out by bead-based RIA; format: biochemical; conditions: for degradation kinetics with insulysin (IDE): 37° C., 0-15 min, means of duplicates, FIGS. 10 and 11
Source text: Now referring primarily to FIGS. 10, 11 and 12 and Example 12, an embodiment of the inventive immunoassay system (1) allows for the coincident measurement of the degradation of a plurality of target particles (7) contained in the same immunoassay sample (6). […] Similarly, now referring to FIG. 11, the inventive immunoassay method can be used to determine the decreased concentration of amylin in an immunoassay sample (6) upon degradation by IDE.
1. Prepare separately solutions of 200 pg/mL of human glucagon (adjust with I^125-glucagon) and 40 pg/mL of human amylin (adjust with I^125-amylin) each in a total volume of 2 mL.
2. Prepare a digestion solution of insulysin (IDE) 6.2 μg in 3.1 mL of 0.15M NaCl, 25 mM Tris, pH7.5. Aliquote 0.4 mL to a tube for total of 12 tubes of digestion solution.
3. Add to the digestion solution with above 0.4 mL of human glucagon or amylin solution.
4. Incubate at 37° C. for a time interval at 15, 10, 7, 5, 3, 1 min and a tube without the incubation.
5. At the indicated time, add 40 μL protease inhibitor (bacitracin 2 mg/ml final concentration) and 300 μL of 10 mM ammonium chloride to stop the reaction.
6. Transfer 50 μL antibody conjugated bead prepared in accordance with Example 2B, 120 μL RIA buffer, 50 μl aprotinin and 80 μL of digested I^125-labeled peptide solution to 1 mL conical tube and incubate with agitation for 30 min.
7. Spin 5 min at 16000×g to pellet the beads and discard supernatant.
8. Add 1 mL of RIA buffer and centrifuge at 1700×g for 5 min.
9. Remove the supernatant and count the CPM of the pellet by gamma counter.

anti-ghrelin antibody [3] = assay: Time course of I^125-ghrelin binding to anti-ghrelin antibody-conjugated bead; conditions: room temp (21° C.), 0-249 min, FIG. 3
Experimental: A particular embodiment of the immunoassay method for dissociable capture of radiolabeled ghrelin peptide by solid phase linked antibody can be performed as follows:
1. Combine 100 ul of I^125-ghrelin (specific activity 3.15 p mole/ml) prepared in accordance with Example 1.3 (Example 1 step 3) to each of eight aliquots of 50 μL antibody-conjugated beads and to each of two aliquots of 50 μL glycine-conjugated beads prepared in accordance with Example 2B suspended in stock solution (0.01 M Tris (pH 7.4), 0.1% NaN3, 0.1% w/v bovine serum albumin (BSA), 0.15M NaCl, and 0.001M EDTA.
2. Incubate antibody-conjugated beads at room temp (21° C.) for 0, 5, 10, 15, 30, 60, 120, and 249 min.
3. To each incubated mixture of antibody-conjugated beads and I^125-ghrelin add 1.5 ml RIA buffer (150 mM NaCl, 100 mM sodium phosphate, 1% BSA and 1% Triton X-100), mix, and centrifuge for 5 minutes at 17,000× g. Aspirate off the supernatant. 4. Wash once with 1 ml RIA buffer. Aspirate off the supernatant
5. Measure and record counts per minute for each assay tube.
The results shown are the means of duplicates. The counts from gamma counter represent the specific binding by anti-ghrelin antibody. The binding curve was generated using a non-linear least square fitting program in GraphPad Prism (version 2.01).

“ghrelin (GSSFLSPEHQRVQQRKESKKPPAKLQPR; ends and bridges not checked; UniProt Q9UBU3 24-51, looked up) [human peptide ghrelin, 28 residues in the naturally occurring form; target particle of the immunoassay]” was tested, and the IC50 (anti-ghrelin antibody [1]) was “about 400 pg/ml” and the IC50 (anti-ghrelin antibody [2]) was “around 400 pg/ml”.

For glucagon, the “degradation kinetics with insulysin (IDE)” value (insulysin (IDE)) was “pseudo-first order degradation” and the “concentration in immunoassay sample upon degradation with insulysin” value (insulysin (IDE); increasing duration of incubation with IDE at 37° C., FIG. 10) was “decreases”.

“I^125-ghrelin: I^125-labeled ghrelin peptide used as labeled particle (GSSFLSPEHQRVQQRKESKKPPAKLQPR; ends and bridges not checked; also: 125I label, position not given here; UniProt Q9UBU3 24-51, looked up)” was tested, and the “time to saturation binding to antibody-conjugated beads” value (anti-ghrelin antibody [3]) was “two hour saturation binding”.

With “amylin (KCNTATCATQRLANFLVHSSNNFGAILSSTNVGSNTY; not fully specified (C-terminus, bridges); cysteine pairing not given here; also: 125I label, position not given here; UniProt P10997 34-70, looked up) [human amylin, human amylin, adjusted with I^125-amylin, digested with insulysin]” the “degradation kinetics with insulysin (IDE)” value (insulysin (IDE)) was “pseudo-first order degradation”.
